Source: patent US20160346249A1 (priority 2012, published 2016)
Values joined by “and” are separate entries in the source; they are usually repeats but may differ in a detail not shown here. Identical values can stand only once. Like-named read-outs stand apart in the source and are kept apart here.

Experiments:
[1] = mouse, in vivo; for AUC0-24: po
[2] = 12-month dog toxicity and toxicokinetic study; format: in vivo; conditions: for Cmax / Tmax / AUC(0-t): beagle, dog, plasma, po; for AUC(0-t): read-out: AUC0-24; for body weight lower than control: Week 52
Protocol: Blood samples were collected on Days 0, 91, 181, 268 and 358 from up to 4 animals/gender/group. Plasma samples collected on Days 91, 181, 268, as well as all plasma samples collected from the control group were not evaluated.
For toxicology assessment four dogs of each gender were included in each group. Assessments included clinical observations, body weight, and food consumption measures which were recorded periodically during the study. Ophthalmic examinations were performed during Weeks 1, 12, 25, 38, 51, and 55 (recovery period). Electrocardiograms were recorded during Weeks 2, 12, 25, 38, and 51. Clinical pathology evaluations (hematology, serum chemistry, and urinalysis) were performed during Weeks 1, 12, 25, 38, 52, and 56 (recovery period). At termination, complete necropsies were performed on all dogs and selected organs were weighed. Selected tissues from the control and 20 (15) mg/kg/day group animals and animals euthanized in extremis were examined microscopically. Sections of livers from dogs in the control and 20 (15) mg/kg/day groups were collected at both the primary and 4-week post-treatment recovery necropsies for assessment of drug metabolism enzyme (microsomal cytochrome P450) activity.

[3] = Single dose 300 mg / 450 mg pharmacokinetic, safety and tolerability study in healthy male and female subjects; conditions: for renal clearance, individual subjects: listed as DOV 21,947
[4] = female, 2 mg/kg/day, females, 2 mg/kg/day, Day 0
[5] = female, 2 mg/kg/day, females, 2 mg/kg/day, Day 358
[6] = female, 6 mg/kg/day, females, 6 mg/kg/day, Day 0
[7] = female, 6 mg/kg/day, females, 6 mg/kg/day, Day 358
[8] = female, 15 mg/kg/day, females, 20 (15) mg/kg/day, Day 358
[9] = female, 20 mg/kg/day, females, 20 (15) mg/kg/day, Day 0
[10] = male, 2 mg/kg/day, males, 2 mg/kg/day, Day 0
[11] = male, 2 mg/kg/day, males, 2 mg/kg/day, Day 358
[12] = male, 6 mg/kg/day, males, 6 mg/kg/day, Day 0
[13] = male, 6 mg/kg/day, males, 6 mg/kg/day, Day 358
[14] = male, 15 mg/kg/day, males, 20 (15) mg/kg/day, Day 358
[15] = male, 20 mg/kg/day, males, 20 (15) mg/kg/day, Day 0
[16] = both, human, plasma, oral, 300 mg
[17] = both, human, plasma, oral, 450 mg
[18] = both, human, plasma, po, 300 mg

## Clc1ccc([C@]23CNC[C@H]2C3)cc1Cl [amitifadine, (+)-1-(3,4-dichlorophenyl)-3-azabicyclo[3.1.0]hexane]
[1]; female, Crl:CD-1(ICR) BR, 10 mg/kg/day
  AUC0-24: 2086 ng·h/mL
[1]; female, Crl:CD-1(ICR) BR, 30 mg/kg/day
  AUC0-24: 6474 ng·h/mL
[1]; female, Crl:CD-1(ICR) BR, 100 mg/kg/day
  AUC0-24: 26436 ng·h/mL
[1]; male, Crl:CD-1(ICR) BR, 150 mg/kg/day, 0 study day
  twitching (animals affected): 3/10
[1]; male, Crl:CD-1(ICR) BR, 10 mg/kg/day
  AUC0-24: 1907 ng·h/mL
[1]; male, Crl:CD-1(ICR) BR, 30 mg/kg/day
  AUC0-24: 7250 ng·h/mL
[1]; male, Crl:CD-1(ICR) BR, 100 mg/kg/day
  AUC0-24: 40306 ng·h/mL
[1]; male, Crl:CD-1(ICR) BR, 150 mg/kg/day
  AUC0-24: 40248 ng·h/mL
[1]; 150 mg/kg/day
  absolute liver weight higher: 22%
  absolute lymphocyte counts lower: 54%
  percent neutrophil counts higher: 183%
  percentage lymphocyte counts lower: 31%
[2]; [4]
  Cmax: 615 ng/mL
  Tmax: 1 h
  AUC(0-t): 1580 ng·h/mL
[2]; [5]
  Cmax: 1150 ng/mL
  Tmax: 1 h
  AUC(0-t): 3990 ng·h/mL
[2]; [6]
  Cmax: 3680 ng/mL
  Tmax: 1.3 h
  AUC(0-t): 10800 ng·h/mL
[2]; [7]
  Cmax: 2420 ng/mL
  Tmax: 1 h
  AUC(0-t): 11100 ng·h/mL
[2]; [8]
  Cmax: 5800 ng/mL
  Tmax: 1.2 h
  AUC(0-t): 19600 ng·h/mL
[2]; [9]
  Cmax: 6880 ng/mL
  Tmax: 1 h
  AUC(0-t): 24100 ng·h/mL
[2]; females, 6 mg/kg/day
  body weight lower than control: 12%
[2]; females, 20 (15) mg/kg/day
  body weight lower than control: 14%
[2]; [10]
  Cmax: 1040 ng/mL
  Tmax: 1.3 h
  AUC(0-t): 2130 ng·h/mL
[2]; [11]
  Cmax: 844 ng/mL
  Tmax: 1 h
  AUC(0-t): 2220 ng·h/mL
[2]; [12]
  Cmax: 3250 ng/mL
  Tmax: 1.3 h
  AUC(0-t): 10500 ng·h/mL
[2]; [13]
  Cmax: 2780 ng/mL
  Tmax: 1.3 h
  AUC(0-t): 15800 ng·h/mL
[2]; [14]
  Cmax: 4830 ng/mL
  Tmax: 1.2 h
  AUC(0-t): 18100 ng·h/mL
[2]; [15]
  Cmax: 7980 ng/mL
  Tmax: 1 h
  AUC(0-t): 29600 ng·h/mL
[2]; males, 6 mg/kg/day
  body weight lower than control: 5%
[2]; males, 20 (15) mg/kg/day
  body weight lower than control: 15%
[3]; 300 mg
  ingested dose in urine (0-24 hr): 0.4%
[3]; 300 mg single oral dose
  renal clearance, individual subjects: 40.6 mL/h and 62.1 mL/h and 32.1 mL/h and 47.7 mL/h and 39.2 mL/h and 66.6 mL/h and 91.7 mL/h and 47.3 mL/h and 76.4 mL/h
[3]; 450 mg
  ingested dose in urine (0-24 hr): 0.3%
[3]; 450 mg single oral dose
  renal clearance, individual subjects: 42.2 mL/h and 31.9 mL/h and 25.4 mL/h and 22.3 mL/h and 40.1 mL/h and 34.1 mL/h and 32.1 mL/h and 79.2 mL/h and 33.7 mL/h and 47.3 mL/h
[3]; 300 and 450 mg
  oral clearance: 13.2 to 13.6 L/h
[3]; [16]
  Cmax: 3370 ng/mL
  Tmax: 2.15 h
[3]; [17]
  Cmax: 5110 ng/mL
  MRT: 6.3 to 6.4 h
  Tmax: 2.43 h
[3]; both, human, plasma, oral, 450 mg, elimination half-life, 300 and 450 mg
  half-life: ~4 h
[3]; [18]
  AUC(0-inf): 19700 ng·h/mL
  AUC(0-t): 19400 ng·h/mL
  Cmax: 3370 ng/mL
  MRT inf: 6.29 h
